Measured values reported in patent US4801534A, “Water soluble zanthylium derivative substrates” (Coulter Electronics, Inc., priority 1987, dated 1989).

Assays:
Type in all cases: biochemical
[1] = biological target: T1, Thrombin (Homo sapiens, UniProt P00734); test: Thrombin reaction rates, spectrophotometric, change in absorbance at 496 nm; details: 37° C., 0.10M ACES pH 7.0, 0.05M KCl
T1 construct: Thrombin reaction rates were determined with the water soluble substrate
Procedure: Identical test conditions were used including temperature 37° C., volume 1.0 ml., and buffer 0.10M ACES pH 7.0, with 0.05M KCl. Since sarcosyl (Sar) and carbobenzyloxy (Cbz) have similar molecular weights, both were tested at 100 ug/ml.

[2] = test system: coagulation factor VIII; test: Fluorescent coagulation factor VIII assay based on APTT, substrate detects thrombin generation
Procedure: (§1) Fluorescent assays for coagulation factors VIII and IX, based on the activated partial thromboplastin time (APTT) assay, were performed with the substrate (Sar-Pro-Arg)2 -Rhodamine 110. The synthetic substrate was used to detect thrombin generation, substituting for the natural substrate fibrinogen present in both human and animal plasmas. Standard calibration curves were constructed with normal plasma, Thromboscreen™ from Curtin Matheson Scientific, which was used to correct factor VIII and IX deficient plasmas, George King Biomedical. The APTT reagent contained purified soybean phospholipids and ellagic acid activator, Dade Diagnostics. […] A Turner model 430 spectrofluorometer with a temperature controlled sample cell holder (37° C.) was used to make the kinetic fluorescent measurements. Excitation and emission wavelengths were set at 468 nm and 525 nm, respectively. Glass test tubes were used to perform the plasma activations and disposable acrylic cuvettes, Centaur Sciences, Inc., were used for the fluorescent measurements.
(§2) A 100 uL aliquot of 0.85% saline or normal plasma diluted in saline was added to a test tube followed by the sequential addition of 100 uL of factor deficient plasma and 100 uL of the APTT reagent. The test tube was incubated in a heating block at 37° C. for 2 minutes, at which time 100 uL of 25 mM CaCl2 was added and the incubation was continued for an additional 30 seconds. The incubation mixture was transferred to a cuvette containing 2.0 mL of the substrate solution prewarmed to 37° C. and the fluorescent rate measured. Linear dose response curves were obtained for factors VIII and IX between 1% and 100% of normal: […]

[3] = test system: coagulation factor IX; test: Fluorescent coagulation factor IX assay based on APTT, substrate detects thrombin generation
Procedure: as §1, §2

[4] = biological target: T2, Purified human alpha-thrombin (Homo sapiens, UniProt P00734); test: Spectrophotometric assay of thrombin with (Pyro-Pro-Arg)2-Rhodamine 110; details: substrate 78 ug/mL, 37° C., pH 8.0
T2 construct: Purified human alpha-thrombin; purchased Dr. John Fenton, N.Y. State Dept. of Health
Procedure: Dose response curves were determined for three different concentrations of thrombin by measuring absorbance increases at 468 nm and 496 nm. Working thrombin dilutions were prepared as follows: Purified human alpha-thrombin, Dr. John Fenton, N.Y. State Dept. of Health, was diluted to 1.04 U/mL, 0.52 U/mL and 0.25 U/mL in 0.05M HEPES, pH 8.0, with 0.25M NaCl and maintained at 4° C. The substrate, (Pyro-Pro-Arg)2 -Rhodamine 110, was dissolved to 78 ug/mL in 0.20M HEPES, pH 8.0, with 0.3M KCl. Disposable acrylic cuvettes with 1 cm light path, Centaur Sciences, Inc. were used. A one mL aliquot of substrate was pipetted into a cuvette and warmed to 37° C. in a heating block. A one mL sample of a working thrombin dilution was added to the cuvette. After mixing the thrombin and substrate, absorbances at 468 nm and 496 nm were determined for 30 seconds with a Hewlett-Packard Model 8450A spectrophotometer. The increased absorbances over the timed intervals were: […]

[5] = substrate 80 micromolar, 15% ethanol for the Cbz substrate
[6] = Factor level 1 % normal, plasma dilution 1:250
[7] = Factor level 10 % normal, plasma dilution 1:25
[8] = Factor level 100 % normal, plasma dilution 1:2.5
[9] = Factor level <1 % normal (no plasma dilution), ex 468 nm, em 525 nm, quinine sulfate = 1.0

Row | Substance | Change In Absorbance, 496 nm/Unit Thrombin/mL [1, 5] | Change In Absorbance, 496 nm/Unit Thrombin/mL ([1]; substrate 800 micromolar) | Relative Fluorescence, Factor VIII [2, 6] | Relative Fluorescence, Factor VIII [2, 7] | Relative Fluorescence, Factor VIII [2, 8] | Relative Fluorescence, Factor VIII [2, 9] | Relative Fluorescence, Factor IX [3, 6] | Relative Fluorescence, Factor IX [3, 7] | Relative Fluorescence, Factor IX [3, 8] | Relative Fluorescence, Factor IX [3, 9] | Absorbance, 0-30 seconds, 468 nm ([4]; Thrombin 0.26 U/mL) | Absorbance, 0-30 seconds, 496 nm ([4]; Thrombin 0.26 U/mL) | Absorbance, 0-30 seconds, 468 nm ([4]; Thrombin 0.52 U/mL) | Absorbance, 0-30 seconds, 496 nm ([4]; Thrombin 0.52 U/mL) | Absorbance, 0-30 seconds, 468 nm ([4]; Thrombin 1.04 U/mL) | Absorbance, 0-30 seconds, 496 nm ([4]; Thrombin 1.04 U/mL)
1 | (Cbz-L-Pro-Arg)2 -Rhodamine 110 [(Cbz-Pro-Arg)2 -Rhodamine 110, reference compound] | 0.122 |  |  |  |  |  |  |  |  |  |  |  |  |  |  | 
2 | (H-Sar-Pro-Arg)2 -Rhodamine 110 [(Sar-Pro-Arg)2 -Rhodamine 110] | 1.700 | 2.872 | 0.121 | 0.148 | 0.333 | 0.119 | 0.127 | 0.154 | 0.333 | 0.121 |  |  |  |  |  | 
3 | (H-L-Pyro-Pro-Arg)2 -Rhodamine 110 [(Pyro-Pro-Arg)2 -Rhodamine 110] |  |  |  |  |  |  |  |  |  |  | 0.0461 | 0.0462 | 0.0912 | 0.0860 | 0.1766 | 0.1671
